Earlier results on 1 compound are cited in patent US20220401441A1, “PHARMACEUTICAL COMPOSITION COMPRISING SELEXIPAG” (ACTELION PHARMACEUTICALS LTD, priority 2019, published 2022).

In the series the test system is patients with pulmonary arterial hypertension. The note with it: selexipag versus placebo.

As to `CC(C)N(CCCCOCC(=O)NS(C)(=O)=O)c1cnc(-c2ccccc2)c(-c2ccccc2)n1` [selexipag, 2-{4-[N-(5,6-diphenylpyrazin-2-yl)-N-isopropylamino]butyloxy}-N-(methylsulfonyl)acetamide], the “risk of the primary composite end point of death or a complication related to pulmonary arterial hypertension” value is given as “significantly lower”.
